# According to patent US6964966B2, “Generation triple-targeting, chiral, broad-spectrum antimicrobial 7-substituted piperidino-quinolone carboxylic acid derivatives, their preparation, compositions and use as medicaments” (Wockhardt Limited, priority 2001, dated 2005):
# Read-outs that look alike come from different tables or passages of the source.
# How the values were obtained:
# [1] = test system: Trovafloxacin-Resistant and Vancomycin-Resistant Enterococci; assay: In-vitro antimicrobial test, MIC by agar dilution (NCCLS): enterococci (Table 19); type: cell-based; conditions: for MIC: read-out: MIC, V R E 336
# From the text: The comparative antimicrobial activity of representative compounds of the invention and reference compounds against various sensitive and resistant microorganisms is given in Tables 17 to 20. The test method was in accordance with the standard NCCLS protocol (Methods for Dilution Antimicrobial Susceptibility Tests for Bacteria that grow Aerobicially, Approved Standards, M7-A5, Fifth Edition, January 2000).
# (§1) The antibacterial activities (minimum inhibitory concentration: MIC, mcg/ml) were determined by using the two-fold serial agar dilution method recommended by NCCLS. The media used for preculture and main culture were Tryptic Soya broth (Difco) and Mueller Hinton medium (Difco), respectively. The Mueller Hinton agar was supplemented with 5% sheep blood for streptococci. Overnight cultures were diluted with buffered saline (pH 7.2) to the final cell density of 5×10^6-10^7 CFU/ml, and each bacterial suspension was applied with a replicator (Denley's multipoint inoculator, UK) onto a series of Mueller-Hinton agar plates containing antibacterial agents at various concentrations. Final inoculum was approximately 10^4 CFU/spot. The plates were incubated for 18 hrs at 37° C. The MIC was defined as the lowest concentration of an antibacterial agent that inhibits the development of visible microbial growth on agar.
# [2] = test system: Fluoroquinolone-Resistant Strains; assay: In-vitro antimicrobial test, MIC by agar dilution (NCCLS): fluoroquinolone-resistant strains (Table 18); type: cell-based
# Method: (§2) The test method was in accordance with the standard NCCLS protocol (Methods for Dilution Antimicrobial Susceptibility Tests for Bacteria that grow Aerobicially, Approved Standards, M7-A5, Fifth Edition, January 2000).
# as §1
# [3] = test system: Fluoroquinolone Sensitive Strains; assay: In-vitro antimicrobial test, MIC by two-fold serial agar dilution (NCCLS): fluoroquinolone sensitive strains (Table 17); type: cell-based
# Method: as §2, §1
# [4] = test system: Multidrug-Resistant (MDR) Pneumococcal Infections; assay: In-vivo antimicrobial test: systemic infection model (mouse septicemia), oral ED50 (Table 22); design: species or system Swiss mice; conditions: oral 1 hour and 5 hours post-infection, survival on day 7, strain resistant to β-lactams, macrolides and fluoroquinolones
# Method: The in vivo efficacy was studied through mouse septicemia model of infection in Swiss male and female mice (4 weeks old, 20+2 g weight) using 6 animals in each group. Infective organisms were inoculated intraperitonially. Compound were administered by oral route 1 hour and 5 hours post-infection. […] Appropriate comparators were included in the study.
# [5] = Phototoxicity, oral dose and UVA exposure, mice; conditions: UVA 4 hours for 4 consecutive days, dose causing ear erythema and oedema
# Method: The stock solutions for different doses were prepared freshly on the day of experimentation. Appropriate concentration of each dose was chosen to give a constant dosage volume of 0.3-0.4 ml/20 g body weight of mouse. The treated mice were exposed to UVA light source immediately after dosing for 4 hours and for 4 consecutive days. The mean light intensity in the UVA chamber was adjusted to 0.9-1.2 mW/cm^2. The total irradiation dose was approximately 18 Joules/cm^2/day. A phototoxic dose is one which causes ear erythema and oeadema.
# [6] = test system: MRSA 5027; type: cell-based
# [7] = test system: J 744 (mouse macrophage); assay: Cytotoxicity test (Alamar blue), J 744 cells (Table 23); type: cell-based; conditions: minimum drug concentration inhibiting Alamar blue color change; 3 hrs drug exposure, then 96 hrs incubation; J 744 mouse macrophage cells
# Method: (§3) Compounds were evaluated for their cytotoxic potential against two […] viz. […] Freshly grown cells were distributed in microtiter plates at a cell density of 10^5-10^6 cells/well and allowed to adhere and form monolayer by incubating the microtiter plate at 37° C. for 24 hrs. […] Following 3 hrs. of drug exposure, cells were washed with D-MEM and incubated further for 96 hrs. Cytotoxic effects of drugs were monitored through daily microscopic observation and by ascertaining the metabolic status through redox indicator Alamar blue. Healthy actively metabolising cells bring about colour change of Alamar blue from blue to pink within an overnight incubation. Cytotoxic drugs inhibit this reaction resulting into blue coloured wells. Minimum drug concentration inhibiting Alamar blue color change i.e. resulting into blue coloured wells for a given drug is considered cytotoxic concentration.
# [8] = test system: V79 (Chinese Hamster Lung); assay: Cytotoxicity test (Alamar blue), V79 cells (Table 23); type: cell-based; conditions: minimum drug concentration inhibiting Alamar blue color change, 3 hrs drug exposure, then 96 hrs incubation
# Method: as §3
# [9] = test system: Clinical Isolate MRSA 5076 with Mutations in DNA Gyrase and Topoisomerase IV as well as bearing an Efflux Pump; type: cell-based
# Method: as §2, §1
# [10] = vancomycin-resistant Enterococcus faecium 336
# [11] = Enterococcus faecalis, ATCC29212, E. faecalis ATCC 29212, read-out: MIC, E. faecalis ATCC 29212
smiles,measurement,setting,value
"Cc1c(N2CCC(O)C(C)C2)c(F)cc2c(=O)c(C(=O)O)cn(C3CC3)c12 (mixture of isomers) [Compound 84, cis/trans-1-Cyclopropyl-6-fluoro-8-methyl-7-(4-hydroxy-3-methyl-1-piperidinyl)-1,4-dihydro-4-oxo-quinoline-3-carboxylic acid]","MIC, Trova-Resist MRSE 110",[1]; Trovafloxacin-resistant methicillin-resistant S. epidermidis 110,0.4 µg/mL
same,"MIC, V R E 336",[1]; [10],3.12 µg/mL
same,"MIC, Cipro^R S. mitis 938",[2],0.4 µg/mL
same,"MIC, Cipro^R S. sanguis 941",[2],0.4 µg/mL
same,"MIC, FQ^R S. pneumoniae 718",[2],0.8 µg/mL
same,"MIC, MRSA 032",[2],0.2 µg/mL
same,"MIC, E. coli ATCC 25922",[3],0.2 µg/mL
same,"MIC, E. faecalis ATCC 29212",[3]; E. faecalis ATCC 29212,0.05 µg/mL
same,"MIC, MSSA ATCC 25923",[3]; MSSA ATCC 25923,0.003 µg/mL
same,"MIC, P. aeruginosa 27853",[3]; P. aeruginosa 27853,3.12 µg/mL
same,"MIC, S. pneumoniae ATCC 49619",[3]; S. pneumoniae ATCC 49619,0.025 µg/mL
same,"MIC, S. sanguis ATCC 10556",[3]; S. sanguis ATCC 10556 (Viridans Streptococci),0.05 µg/mL
"COc1c(N2CCC(N)C(C)(C)C2)c(F)cc2c(=O)c(C(=O)O)cn(C3CC3)c12 (racemic) [Compound 18, (±)-1-Cyclopropyl-6-fluoro-1,4-dihydro-8-mehtoxy-7-(4-amino-3,3-dimethyl-1-piperidinyl)-4-oxo-quinoline-3-carboxylic acid]","MIC, Cipro^R S. sanguis 941",[2],0.4 µg/mL
same,"MIC, FQ^R S. pneumoniae 718",[2],0.8 µg/mL
same,"MIC, MRSA 032",[2],0.8 µg/mL
same,ED50 p.o. MDR S. pneumoniae 718,[4],30 mg/kg
same,phototoxic dose,[5],greater than 500 mg/kg
same,"MIC, E. coli ATCC 25922",[3],0.2 µg/mL
same,MIC against MRSA 5027 after 10 passage in drug containing medium,[6]; after 10 passages,0.4 µg/mL
same,"MIC against MRSA 5027, initially",[6]; before passages in drug-containing medium,0.4 µg/mL
"Cc1c(N2CC[C@H](O)[C@H](C)C2)c(F)cc2c(=O)c(C(=O)O)cn(C3CC3)c12 (relative stereo) [Compound 85, cis-1-Cyclopropyl-6-fluoro-8-methyl-7-(4-hydroxy-3-methyl-1-piperidinyl)-1,4-dihydro-4-oxo-quinoline-3-carboxylic acid]",MIC,[1]; [10],3.12 µg/mL
same,"Cytotoxic concentration, J 744 Macrophage",[7],>1000 µg/mL
same,"Cytotoxic concentration, V 79 CHL",[8],>1000 µg/mL
same,MIC,[3]; [11],0.1 µg/mL
same,MIC,"[3]; S. sanguis ATCC 10556 (Viridans Streptococci), read-out: MIC, S. sanguis ATCC 10556",0.025 µg/mL
"Cc1c(N2CC[C@@H](O)[C@H](C)C2)c(F)cc2c(=O)c(C(=O)O)cn(C3CC3)c12 (relative stereo) [Compound 86, trans-1-Cyclopropyl-6-fluoro-8-methyl-7-(4-hydroxy-3-methyl-1-piperidinyl)-1,4-dihydro-4-oxo-quinoline-3-carboxylic acid]",MIC,[1]; [10],3.12 µg/mL
same,"Cytotoxic concentration, J 744 Macrophage",[7],>1000 µg/mL
same,"Cytotoxic concentration, V 79 CHL",[8],>1000 µg/mL
same,melting point,,214 to 216 °C
same,"MIC, MRSA 5076 + efflux inhibitor reserpine",[9],0.2 µg/mL
same,MIC,[3]; [11],0.05 µg/mL
"COc1c(N2CCC(N)C(C)(C)C2)c(F)cc2c(=O)c(C(=O)O)cn(C3CC3)c12 (single isomer, unassigned; (+)) [Compound 19, (+)-1-Cyclopropyl-6-fluoro-1,4-dihydro-8-mehtoxy-7-(4-amino-3,3-dimethyl-1-piperidinyl)-4-oxo-quinoline-3-carboxylic acid]","MIC, Cipro^R S. mitis 938",[2],0.8 µg/mL
same,"MIC, Cipro^R S. sanguis 941",[2],0.2 µg/mL
same,"MIC, FQ^R S. pneumoniae 718",[2],0.4 µg/mL
same,"MIC, MRSA 032",[2],0.8 µg/mL
same,ED50 p.o. MDR S. pneumoniae 718,[4],20 mg/kg
same,phototoxic dose,[5],greater than 500 mg/kg
same,"MIC, E. coli ATCC 25922",[3],0.2 µg/mL
"COc1c(N2CCC(N)C(C)(C)C2)c(F)cc2c(=O)c(C(=O)O)cn(C3CC3)c12 (single isomer, unassigned; (-)) [Compound 20, (−)-1-Cyclopropyl-6-fluoro-1,4-dihydro-8-mehtoxy-7-(4-amino-3,3-dimethyl-1-piperidinyl)-4-oxo-quinoline-3-carboxylic acid]","MIC, Cipro^R S. sanguis 941",[2],0.4 µg/mL
same,"MIC, FQ^R S. pneumoniae 718",[2],0.8 µg/mL
same,"MIC, MRSA 032",[2],0.8 µg/mL
same,ED50 p.o. MDR S. pneumoniae 718,[4],50 mg/kg
same,phototoxic dose,[5],greater than 500 mg/kg
same,"MIC, E. coli ATCC 25922",[3],0.2 µg/mL
"COc1c(N2CCC(NC(=O)OC(C)(C)C)C(C)(C)C2)c(F)cc2c(=O)c(C(=O)O)cn(C3CC3)c12 (stereo not drawn) [Compound 23, 1-Cyclopropyl-6-fluoro-1,4-dihydro-8-methoxy-7-(4-t-butyloxycarbonylamino-3,3-dimethyl-1-piperidinyl)-4-oxo-quinoline-3-carboxylic acid]",melting point,,218 to 220 °C
